Data: PMC4104591 (Structure (London, England : 1993), 2013)

Biological target: mutant-MDM2-p53 complex (Homo sapiens, UniProt Q00987, E23G/S22P)
Assay: Competitive AIDA-NMR antagonist-induced dissociation assay
Format: binding
Settings: compared with the WT-MDM2-p53 complex

Sequence of mutant-MDM2-p53 complex (Q00987 1-125 S22P/E23G, one chain of several): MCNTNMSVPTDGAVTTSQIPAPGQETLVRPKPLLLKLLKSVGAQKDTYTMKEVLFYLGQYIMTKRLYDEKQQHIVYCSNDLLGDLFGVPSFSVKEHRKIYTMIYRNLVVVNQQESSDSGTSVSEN

effectiveness in dissociating the mutant-MDM2-p53 complex: less effective
Compound: COc1ccc(C2=N[C@@H](c3ccc(Cl)cc3)[C@@H](c3ccc(Cl)cc3)N2C(=O)N2CCNC(=O)C2)c(OC(C)C)c1 [nutlin-3]
